“Also recorded” adds a separate entry of the source.
Tests used:
Format in all cases: cell-based, Chinese hamster
CHO/APPwt cells = experiment: Aβ production in CHO/APPwt cells, treatment alone (Aβ1-40, 42 ELISA, 82E1 WB); details: for Aβ production (Aβ1-40, 42): serum-free medium, 2 h (ELISA) or 16 h (WB)
Description: Chinese hamster ovary (CHO) cells overexpressing human wild-type amyloid precursor protein (APPwt) (CHO/APPwt cells) were cultured in 96-well plate at about 2×10^4/well in Dulbecco's modified Eagle's medium (DMEM) with 10% fetal bovine serum (FBS), 1 mM sodium pyruvate and 100 U/mL of penicillin/streptomycin for 18 hours.
CHO/APPwt cells were cultured in 96-well plate (about 2×10^4/well) in serum-free medium and treated with ApoE LDLR, FlagApoE LDLR (SEQ ID NO.: 1 with an N-terminal FLAG tag), BiotinApo LDLR (SEQ ID NO.: 1 with an N-terminal Biotin) and 3 lysinesApoE LDLR (3KApoE LDLR (SEQ ID NO.: 2)) at indicated doses for about 2 hours.
The conditioned media and cell lysates were prepared, and subjected to Aβ ELISA and protein assay.
CHO cells overexpressing human wild-type APP (CHO/APPwt) cells were cultured in 96-well plate at 2×10^4/well in Dulbecco's modified Eagle's medium (DMEM) with 10% fetal bovine serum (FBS), 1 mM sodium pyruvate and 100 U/mL of penicillin/streptomycin for 18 hours. […] 82E1 WB analyses as shown below the Aβ ELISA result histograms. The Aβ ELISA results are representative of three independent experiments with each condition triplicated and presented as mean±SD.
(residues 133-152, SEQ ID NO: 1)] as indicated for 2 and 16 hours (h). The conditioned media and cell lysates were analyzed by Aβ1-40, 42 ELISA (FIG. 10A), 82E1 WB analysis (FIG. 10B) and protein assay, respectively. In addition, (FIG. 10C) CHO/APPwt cells were cultured in 96-well plate (2×10^4/well) in serum-free DMEM and treated with FlagApoE-LBDP, BiotinApoE-LBDP and 3 lysineApoE-LBDP (3KApoE-LBDP) in comparing to ApoE-LBDP at indicated doses for 2 hours (h). […] (SEQ ID NO: 2); […]-[…] (SEQ ID NO: 10); Biotin-[…] (SEQ ID NO: 1 with an N-Terminal Biotin).
CHO cells engineered to express human wild-type APP (CHO/APPwt) or Swedish mutant APP (CHO/APPswe) were obtained. These cells were cultured in 96 or 24 well plates at 4×10^4 or 2×10^5 cells/well, respectively, in Dulbecco's modified Eagle's medium (DMEM) with 10% fetal bovine serum, 1 mM sodium pyruvate and 100 U/mL of penicillin/streptomycin (Invitrogen, Thermo Fisher Scientific). In addition, murine N2a cells transfected with APPwt (N2a/APPwt were obtained), SH-SY5Y cells transfected with APPswe and wild-type SH-SY5Y cells (ATCC, Manassas, Va.) were cultured as previously described^42. Primary hN2TM human neurons (Neuromics, Edina, Minn.) were cultured in hN2TM human neuron culture media and primary HCN2 human neurons (ATCC) were cultured in DMEM with 4 mM L-glutamine adjusted to contain 1.5 g/L sodium bicarbonate, 4.5 g/L glucose, fetal bovine serum (10%).
Aβ1-40, 42 and sAPPα from cell and brain homogenates were detected by Aβ1-40, 42 and sAPPα ELISA kits (IBL-America), strictly following the manufacturer's instructions^43,44.
WB analyses were performed as previously described^43,44. Briefly, 10% bicine/tris gel containing 8 M urea was used for separation of Aβ1-40, 42 species from brain homogenates or CHO cell conditioned media or lysates, followed by transfer to 0.2 μm pore-size nitrocellulose membrane (Bio-Rad, Hercules, Calif.). The membrane was boiled in PBS for 3 to 5 min before blocking to enhance sensitivity and then incubated with 82E1. For all other proteins detected by WB, 10% tris-SDS gels were used. Densitometry analysis was performed as previously described using a FluorS Multiimager with Quantity One™ software 43.

p38 MAPK = p38 MAPK phosphorylation in CHO/APPwt cell lysates (WB); details: peptides 10 μM or apoE 10 μg/mL, 0 to 180 min
p44/42 MAPK = p44/42 MAPK phosphorylation in CHO/APPwt cell lysates (WB); details: peptides 10 μM or apoE 10 μg/mL, 0 to 180 min
CHO/APPdE1 cells = experiment: Aβ production in CHO cells expressing APP695 lacking the N-terminal E1 region; details: peptides 10 μM or apoE 10 μg/mL, 4 h; compared with CHO/APPwt
Source text: CHO cells were also transfected with pCMV6 APP695 or pCMV6 E1 depleted APP695, yielding cells expressing wild type APP695 (CHO/APPwt) or truncated APP695 lacking the N-terminal E1 region (CHO/APPdE1). […] Diagram indicates important domains identified in APP, including N-terminal E1 region (top panel), and APPwt and APPdE1 proteins in cell lysates and conditioned media derived from the transfected CHO cells as determined by WB using 6E10 (middle panels). […] ELISA results are representative of three independent experiments with each condition triplicated and presented as mean±s.d. of Aβs (μg/mg of total intracellular protein). Asterisk indicates P<0.05 compared with the corresponding absence of 22C11, 6H3B5 or 6KApoEp, or with corresponding CHO/APPwt cells, as determined by one-way ANOVA.
Therefore, apoE and ApoEp mediates and 6KApoEp reduces Aβ production by binding to the N-terminal E1 region of APP, but this region of APP is not required for spontaneous Aβ release in the absence of apoE.

| Substance | sAPPα secretion (CHO/APPwt cells) | Aβ production (Aβ1-40, 42) (CHO/APPwt cells) | p38 MAPK phosphorylation (p38 MAPK) | p44/42 MAPK phosphorylation (p44/42 MAPK) | Aβ production in CHO/APPdE1 cells (CHO/APPdE1 cells) |
| --- | --- | --- | --- | --- | --- |
| ApoE3: human recombinant apolipoprotein E3 protein (BioVision) | decreased sAPPα secretion | markedly promote amyloid β protein (Aβ) production | activated both p44/42 and p38 MAPK phosphorylation | activated both p44/42 and p38 MAPK phosphorylation | markedly less Aβ production compared with CHO/APPwt cells |
| ApoE4: human recombinant apolipoprotein E4 protein (BioVision) | decreased sAPPα secretion | increased Aβ1-40, 42 production; also recorded: markedly promote amyloid β protein (Aβ) production | activated both p44/42 and p38 MAPK phosphorylation | activated both p44/42 and p38 MAPK phosphorylation | markedly less Aβ production compared with CHO/APPwt cells |

Source: patent US20190185544A1, “COMPOSITIONS AND METHODS OF MODULATING ABETA PROTEIN” (University of South Florida, priority 2016, published 2019)
